The values that follow come from ChEMBL document CHEMBL5335821, “Antiviral Protein-Protein Interaction Inhibitors” (J Med Chem, 2024).

For assay [1], the system named is dengue virus type 2. Put plainly: Antiviral activity agaisnt DENV-2 strain New Guinea C infected with hamster BHK-21 cells assessed as reduction in viral growth. Type of assay: functional, organism-based.
Assay [2] relates to Ebolavirus. Put plainly: Antiviral activity against Ebola virus infected in human HeLa cells assessed as reduction in viral cytopathic effect. Particulars: Orthoebolavirus. Type of assay: functional, organism-based.
The subject of assay [3] is Hepatitis C virus. Put plainly: Antiviral activity against HCV infected in human Huh-7 cells assessed as reduction in viral replication. Type of assay: functional, organism-based, Hepacivirus hominis.
Assay [4] in a line: Inhibition of HCV RNA. Format: functional, Hepacivirus hominis.
Assay [5] has as its system Ebolavirus. Kind of assay: Antiviral activity against pseudotyped Ebola virus infected in HeLa cells assessed as reduction in viral infection incubated for 48 hrs by firefly luciferase assay. Format: functional, organism-based. As to conditions: Orthoebolavirus.
Assay [6] has as its system Hepatitis C virus. Kind of assay: Antiviral activity against HCV infected in Huh-7 assessed as inhibition of HCV RNA replication at 5 nM relative to control. Format: functional, Hepacivirus hominis. Details: scale not given: the % may be the effect or the level left.
Assay [7] deals with Replicase polyprotein 1ab (Severe acute respiratory syndrome coronavirus 2, UniProt P0DTD1). Put plainly: Inhibition of SARS-CoV-2 main protease.
Assay [8] has as its target Replicase polyprotein 1ab (Severe acute respiratory syndrome-related coronavirus, UniProt P0C6X7). Kind of assay: Inhibition of SARS-CoV-1 Main Protease.
Assay [9] can be described thus: Inhibition of MERS-CoV Main protease. Details: species or system Middle East respiratory syndrome-related coronavirus.
For assay [10], the target named is Spike glycoprotein/Angiotensin-converting enzyme 2 (Severe acute respiratory syndrome coronavirus 2, UniProt P0DTC2+Q9BYF1). Kind of assay: Inhibition of SARS-CoV-2 spike protein RBD- human ACE2 interaction incubated for 1 hr by colorimetric ELISA assay. (In general: In an ELISA, binding on a coated surface is turned into a signal by an enzyme label.)
Chain of Spike glycoprotein/Angiotensin-converting enzyme 2 (Q9BYF1 18-805 limits assumed, other chains not shown): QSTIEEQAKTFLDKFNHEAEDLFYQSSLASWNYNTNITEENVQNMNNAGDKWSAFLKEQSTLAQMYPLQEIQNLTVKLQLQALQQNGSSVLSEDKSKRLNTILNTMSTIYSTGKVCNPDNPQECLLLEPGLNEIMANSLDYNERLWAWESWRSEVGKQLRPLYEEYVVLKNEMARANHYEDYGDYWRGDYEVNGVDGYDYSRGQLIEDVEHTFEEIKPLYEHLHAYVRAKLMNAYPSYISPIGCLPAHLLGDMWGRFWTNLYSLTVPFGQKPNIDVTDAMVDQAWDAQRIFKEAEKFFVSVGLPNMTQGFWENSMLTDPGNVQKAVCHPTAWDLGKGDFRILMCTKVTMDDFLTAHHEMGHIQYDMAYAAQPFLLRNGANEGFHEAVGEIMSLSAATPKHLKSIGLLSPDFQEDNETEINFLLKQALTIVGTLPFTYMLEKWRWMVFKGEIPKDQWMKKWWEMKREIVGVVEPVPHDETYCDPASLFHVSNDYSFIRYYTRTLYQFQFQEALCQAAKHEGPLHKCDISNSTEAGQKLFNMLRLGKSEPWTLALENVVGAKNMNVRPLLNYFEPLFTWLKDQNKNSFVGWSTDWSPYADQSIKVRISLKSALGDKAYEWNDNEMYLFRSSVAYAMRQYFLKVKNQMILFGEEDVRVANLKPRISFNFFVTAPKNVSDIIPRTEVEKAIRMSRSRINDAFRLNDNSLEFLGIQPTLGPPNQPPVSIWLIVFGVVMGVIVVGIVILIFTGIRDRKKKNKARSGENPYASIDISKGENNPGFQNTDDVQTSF
Assay [11] has as its system Chikungunya virus. Put plainly: Antiviral activity against CHIKV infected in HEK293T cells. As to conditions: HEK-293T. Format: functional, organism-based.
Assay [12] has as its system Hepatitis C virus. Put plainly: Antiviral activity against HCV infected in Huh-7 assessed as reduction in viral RNA replication at 0.5 nM relative to control. Details: scale not given: the % may be the effect or the level left. Format: functional, Hepacivirus hominis.
In assay [13] the test system is Hepatitis C virus. Kind of assay: Antiviral activity against HCV infected in human Huh-7.5.1 cells assessed as reduction in viral infection incubated for 48 hrs. Type of assay: functional, organism-based, Hepacivirus hominis. Particulars: Huh-7.5.1, 48 h.
Assay [14] relates to Hepatitis C virus. Put plainly: Antiviral activity against HCV infected in human Huh7.5.1 cells assessed as decrease in viral infection. Format: functional, organism-based, Hepacivirus hominis. As to conditions: Huh-7.5.1.
Assay [15] concerns Chikungunya virus. Kind of assay: Antiviral activity against CHIKV infected in Vero 76 cells assessed as reduction in cytopathic effect. Type of assay: functional, organism-based.
In assay [16] the test system is SARS-CoV-2. Put plainly: Antiviral activity against SARS-CoV-2. Type of assay: functional, organism-based, Severe acute respiratory syndrome coronavirus 2.

Where a SMILES comes first, the peptide text is derived from it.

`Clc1ccc(-c2ccc(-c3nc(NCc4cccnc4)nc4ccccc34)s2)cc1`: the EC50 in assay [1] is 68 nM.
Regarding `COC(=O)c1ccc(COc2ccccc2CN2CCN(C(=O)CNC(=O)CC34CC5CC(CC(C5)C3)C4)CC2)cc1`, the IC50 in [2] is 130 nM.
The same measure, in the same setting: in the case of `O=C(CC12CC3CC(CC(C3)C1)C2)NCC(=O)N1CCN(Cc2ccccc2)CC1` it was 1600 nM.
With `C[C@H]1O[C@@H](O[C@H]2CC[C@@]3(C)[C@@H](CC[C@]4(C)[C@@H]3C=CC3=C5CC(C)(C)CC[C@]5(CO)[C@H](O)C[C@]34C)[C@]2(C)CO)[C@H](O)[C@@H](O[C@@H]2O[C@H](CO)[C@@H](O)[C@H](O)[C@H]2O)[C@H]1O`, in assay [3], the EC50 worked out at 20700 nM.
In turn, `COc1cc(C[C@@]2(O)C(=O)OC[C@@H]2Cc2ccc(OC)c(OC)c2)ccc1O` had an IC50 in assay [4] of 670 nM.
Regarding `FC(C1=Nc2ccccc2N=C(c2ccccc2)C1)C(F)(F)F` (stereo not given), the IC50 in [5] came out at 10000 nM.
On to `CSCC[C@H](NC(=O)[C@H](Cc1c[nH]c2ccccc12)NC(=O)[C@@H](NC(=O)[C@H](CS)NC(=O)CNC(=O)[C@H](Cc1ccccc1)NC(=O)[C@H](Cc1c[nH]c2ccccc12)NC(=O)[C@H](CO)NC(=O)CNC(=O)[C@@H](N)CCC(N)=O)[C@@H](C)O)C(=O)N[C@@H](CC(N)=O)C(=O)N[C@@H](CO)C(=O)N[C@H](C(=O)NCC(=O)N[C@@H](Cc1ccccc1)C(=O)O)[C@@H](C)O`, for which, in [6], the Activity is 50%.
`Cc1cc2nc3s/c(=C/c4ccc(-c5cccc(C(=O)O)c5)o4)c(=O)n3c2cc1C`: the IC50 in assay [7] turned out to be 55 nM; in [8] it was 59 nM; in assay [9], 75 nM.
In assay [10], `CN1C(=O)c2ccccc2[S+]([O-])c2cc([N+](=O)[O-])ccc2S1(=O)=O` (stereo not given) gave a concentration for half-maximal inhibition (IC50) of 670 nM.
In the case of `COc1cc(OC)c2c(c1)O[C@@]1(c3ccc(Br)cc3)[C@H](c3ccccc3)C[C@@H](O)[C@@]21O`, 22.4 nM corresponded to half-maximal inhibition in assay [11] (IC50).
Turning to `CC[C@H](C)[C@H](NC(=O)[C@H](C)NC(=O)[C@H](Cc1c[nH]c2ccccc12)NC(=O)[C@H](CO)NC(=O)[C@H](C)N)C(=O)N[C@@H](CCCCN)C(=O)N[C@@H](Cc1c[nH]c2ccccc12)C(=O)N[C@@H](CCC(=O)O)C(=O)N[C@@H](Cc1ccc(O)cc1)C(=O)N[C@H](C(=O)N[C@H](C(=O)N[C@@H](CC(C)C)C(=O)N[C@@H](CC(C)C)C(=O)N[C@@H](Cc1ccccc1)C(=O)N[C@@H](CC(C)C)C(=O)N[C@@H](CC(C)C)C(=O)O)C(C)C)C(C)C` (H-ASWAIKWEYVVLLFLL-OH), the Activity in assay [12] amounted to 60%. Moreover, the IC50 in assay [13] turned out to be 51000 nM.
As to `CC(C)[C@H](NC(=O)[C@H](Cc1c[nH]c2ccccc12)NC(=O)[C@@H](NC(=O)[C@H](C)N)[C@@H](C)O)C(=O)N[C@@H](CS)C(=O)NCC(=O)N1CCC[C@H]1C(=O)N[C@@H](CS)C(=O)N[C@H](C(=O)O)[C@@H](C)O` (H-ATWVCGPCT-OH), in assay [14], the IC50 was determined as 5500 nM.
In the case of `COc1ccc2cc3[n+](cc2c1OC)CCc1cc2c(cc1-3)OCO2` [BERBERINE], the EC50 in [3] is 7870 nM.
Same read-out and setting: the result for `COc1c(NC(=O)C(=O)c2ccc(OCCN3CCOCC3)c3ccccc23)cc(C(C)(C)C)cc1NS(C)(=O)=O` [ITX-5061 FREE BASE] reads 0.1 nM.
Consider `Cc1ccc(C(=O)Nc2ccc(S(=O)(=O)O)c3cc(S(=O)(=O)O)cc(S(=O)(=O)O)c23)cc1NC(=O)c1cccc(NC(=O)Nc2cccc(C(=O)Nc3cc(C(=O)Nc4ccc(S(=O)(=O)O)c5cc(S(=O)(=O)O)cc(S(=O)(=O)O)c45)ccc3C)c2)c1` [SURAMIN], for which the IC50 in assay [15] is 5680 nM.
For `CCOC(=O)c1c(CSc2ccccc2)n(C)c2cc(Br)c(O)c(CN(C)C)c12` [UMIFENOVIR], the IC50 in assay [15] is less than 20900 nM.
For the compound IVERMECTIN, a half-maximal effect in assay [16] (EC50) was put at 4110 nM.

Usually EC50 stands for the midpoint of the concentration-response curve. A word on the IC50: it is the midpoint of a concentration-inhibition curve.
